According to patent publication US6013244A, “21-(2-oxo-tetrahydrofuran)-thio pregnane derivatives, a process for their production and pharmaceutical compositions containing them” (Glaxo Wellcome Inc., priority 1995, dated 2000):

Experiments:
lung eosinophilia = experiment: Inhibition of lung eosinophilia in Brown Norway rats; format: in vivo; settings: OVA-sensitised male Brown Norway rats, lung lavage on day 16
Description: (i) Anti-inflammatory Activity--Inhibition of lung eosinophilia in Brown Norway rats
Male Brown norway rats (150-180 g) are sensitised with 1 ml intra-peritoneally (ip) containing 10 mg Al (OH)3 +1 mg Ovalbumin (OVA) on day 1. On day 7 each rat received 1 ml ip containing 10 mg Al(OH)3 +100 ug OVA. On day 14, each rat received an intratracheal (IT) dose of compound or vehicle (0.2 ml), under isoflurane anaesthesia. Compounds are suspended in 0.9% saline/0.2% Tween 80. 4 h after compound administration, each animal receives 400 ug OVA in saline IT (0.2 ml). On day 16, animals are killed and the lungs lavaged with 5 mls of lavage fluid (10 mM EDTA, phosphate buffered saline (pH 7.4), 5 units heparin/ml, 0.1% BSA). The samples are centrifuged at 1000 RPM for 10 minutes. The supernatant is removed and the cells resuspended in 0.5 ml lavage fluid. Total cells are counted with a Sysmex counter. Cytospin slides are prepared using 75 ul of the cell suspension and the cells are stained with May-Grunwald stain. Differential cell counts are performed using a microscope. Numbers of eosinophils are calculated per ul of lavage fluid per rat allowing percentage reduction in eosinophilia to be calculated.

[1] = tested on: Adrenocorticotrophic hormone (ACTH); experiment: Systemic Effects - ACTH Suppression in Adrenalectomised Rats; format: in vivo; settings: adrenalectomised male CD rats, plasma
Description: (II) Systemic Effects--ACTH Suppression in Adrenalectomised Rats
Male CD rats (90-120 g) were adrenalectomised under Isoflurane anaesthesia and drinking water was supplemented with 0.9% saline. Four days later the animals receive a single intravenous dose of compound dissolved in DMA/PEG-200/distilled water (1:6:3) (0.2 ml) at 10 am. At 2 h and 4 h afterwards animals are sacrificed by administration of Euthetal and blood samples are taken by intra-cardiac puncture and collected into heparinised tubes. The samples are centrifuged (20 minutes at 1000 RPM at 4 deg C), the plasma is collected and assayed by Radioimmunoassay (RIA) for Adrenocorticotrophic hormone (ACTH) using a DPC double antibody RIA kit. Intact and vehicle control groups for each time point assessed were included in each experiment in order to account for diurnal variation in ACTH and effects of vehicle. Results are calculated with respect to the RIA standard curve and expressed as ACTH pg/ml plasma, allowing percentage reduction in ACTH to be calculated.

[2] = target: T1, Human Glucocorticoid Receptor (Homo sapiens, UniProt P04150); experiment: functional in vitro glucocorticoid assay, MMTV-sPAP reporter gene in transfected Hela cells; format: cell-based
T1 construct: endogenous in cells; host or cells: HeLa cells stably transfected with the MMTV-LTR/sPAP reporter
T1 sequence (P04150 1-777): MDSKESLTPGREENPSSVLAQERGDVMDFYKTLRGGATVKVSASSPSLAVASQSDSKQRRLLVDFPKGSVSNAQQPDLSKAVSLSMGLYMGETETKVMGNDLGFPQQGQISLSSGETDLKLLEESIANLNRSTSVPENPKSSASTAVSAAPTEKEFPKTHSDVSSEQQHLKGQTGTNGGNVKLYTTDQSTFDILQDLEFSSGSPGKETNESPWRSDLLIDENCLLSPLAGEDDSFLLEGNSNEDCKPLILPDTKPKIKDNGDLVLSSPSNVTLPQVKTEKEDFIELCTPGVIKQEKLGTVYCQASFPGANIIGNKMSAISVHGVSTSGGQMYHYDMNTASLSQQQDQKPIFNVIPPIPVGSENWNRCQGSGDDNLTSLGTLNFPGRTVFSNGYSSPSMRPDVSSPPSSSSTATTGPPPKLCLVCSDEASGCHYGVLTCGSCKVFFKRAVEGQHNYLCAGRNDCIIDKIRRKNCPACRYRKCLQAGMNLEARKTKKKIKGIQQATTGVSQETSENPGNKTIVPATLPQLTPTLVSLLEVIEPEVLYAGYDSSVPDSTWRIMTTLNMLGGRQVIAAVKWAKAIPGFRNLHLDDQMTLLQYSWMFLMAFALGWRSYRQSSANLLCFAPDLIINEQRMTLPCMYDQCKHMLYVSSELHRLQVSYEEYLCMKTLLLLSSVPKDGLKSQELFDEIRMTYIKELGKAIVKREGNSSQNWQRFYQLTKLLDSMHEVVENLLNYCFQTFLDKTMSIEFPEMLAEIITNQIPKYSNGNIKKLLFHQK
Description: The functional assay used was a modification of the method described by T. S Berger et al, of J. of Steroid Biochem. Molec.
Thus, Hela cells were stably transfected with a detectable reporter gene (secreted placental alkaline phosphatase, sPAP) under the control of a glucocorticoid response promoter (the LTR of the mouse mammary tumour virus, MMTV). Various concentrations of standard (dexamethasone) or compounds of the invention were incubated with transfected Hela cells for 72 hours. At the end of the incubation, substrate ([…]) for sPAP was added and the product measured by a spectrophotometric method. Increased absorbance reflected increased sPAP transcription and concentration-response lines were constructed such that EC50 -values could be estimated.

[3] = dose 6.25 μg single intravenous

CC1(C)O[C@@H]2C[C@H]3[C@@H]4C[C@H](F)C5=CC(=O)C=C[C@]5(C)[C@@]4(F)[C@@H](O)C[C@]3(C)[C@]2(C(=O)CS[C@H]2CCOC2=O)O1 (single isomer, unassigned) [Example 3 Isomer A, 6α,9α-Difluoro-11β-hydroxy-16α,17α-isopropylidenedioxy-21-(2-oxo-tetrahydro-furan-3S-yl-sulfanyl)-pregna-1,4-diene-3,20-dione]
% Reduction in Eosinophilia (lung eosinophilia; dose 250 μg intratracheal): 74% | % Reduction in Eosinophilia (lung eosinophilia; dose 750 μg intratracheal): 97% | % Reduction in ACTH at 2 h ([1]; dose 500 μg single intravenous): 16% | % Reduction in ACTH at 4 h ([1]; dose 500 μg single intravenous): 15%

CCCC1O[C@@H]2C[C@H]3[C@@H]4CCC5=CC(=O)C=C[C@]5(C)[C@H]4[C@@H](O)C[C@]3(C)[C@]2(C(=O)CSC2CCOC2=O)O1 (single isomer, unassigned) [Example 9 isomer A, 16α,17α-Butylidenedioxy-11β-hydroxy-21-(2-oxo-tetrahydrofuran-3-yl-sulfanyl)-pregna-1,4-diene-3,20-dione]
EC50 [2]: < 600 nM

CCCC1O[C@@H]2C[C@H]3[C@@H]4CCC5=CC(=O)C=C[C@]5(C)[C@H]4[C@@H](O)C[C@]3(C)[C@]2(C(=O)CO)O1 (stereo partly drawn) [Budesonide, reference compound]
% Reduction in Eosinophilia (lung eosinophilia; dose 250 μg intratracheal): 82% | % Reduction in ACTH at 2 h [1, 3]: 61% | % Reduction in ACTH at 4 h [1, 3]: 32%

CCC(=O)O[C@]1(C(=O)CSC2CCOC2=O)[C@H](C)C[C@H]2[C@@H]3C[C@H](F)C4=CC(=O)C=C[C@]4(C)[C@@]3(F)[C@@H](O)C[C@@]21C (stereo partly drawn) [Example 1, 6α,9α-Difluoro-11β-hydroxy-16α-methyl-21-(2-oxo-tetrahydro-furan-3-yl-sulfanyl)-17α-propionyloxy-pregna-1,4-diene-3,20-dione]
EC50 [2]: < 600 nM

CCC(=O)O[C@]1(C(=O)CSC2CCOC2=O)[C@H](C)C[C@H]2[C@@H]3C[C@H](F)C4=CC(=O)CC[C@]4(C)[C@@]3(F)[C@@H](O)C[C@@]21C (stereo partly drawn) [Example 2, 6α,9α-Difluoro-11β-hydroxy-16α-methyl-21-(2-oxo-tetrahydro-furan-3-yl-sulfanyl)-17α-propionyloxy-pregn-4-ene-3,20-dione]
EC50 [2]: < 600 nM

CC1(C)O[C@@H]2C[C@H]3[C@@H]4C[C@H](F)C5=CC(=O)CC[C@]5(C)[C@@]4(F)[C@@H](O)C[C@]3(C)[C@]2(C(=O)CSC2CCOC2=O)O1 (stereo partly drawn) [Example 6, 6α,9α-Difluoro-11β-hydroxy-16α,17α-isopropylidenedioxy-21-(2-oxo-tetrahydro-furan-3-yl-sulfanyl)-pregn-4-ene-3,20-dione]
EC50 [2]: < 600 nM

CCC[C@@H]1O[C@@H]2C[C@H]3[C@@H]4C[C@H](F)C5=CC(=O)C=C[C@]5(C)[C@@]4(F)[C@@H](O)C[C@]3(C)[C@]2(C(=O)CSC2CCOC2=O)O1 (stereo partly drawn) [Example 7, 16α,17α-(R-Butylidenedioxy)-6α,9α-difluoro-11β-hydroxy-21-(2-oxo-tetrahydro-furan-3-yl-sulfanyl)-pregna-1,4-diene-3,20-dione]
EC50 [2]: < 600 nM

CCC[C@@H]1O[C@@H]2C[C@H]3[C@@H]4C[C@H](F)C5=CC(=O)CC[C@]5(C)[C@@]4(F)[C@@H](O)C[C@]3(C)[C@]2(C(=O)CSC2CCOC2=O)O1 (stereo partly drawn) [Example 8, 16α,17α-(R-Butylidenedioxy)-6α,9α-difluoro-11β-hydroxy-21-(2-oxo-tetrahydro-furan-3-yl-sulfanyl)-pregn-4-ene-3,20-dione]
EC50 [2]: < 600 nM

CC1(C)O[C@@H]2C[C@H]3[C@@H]4C[C@H](F)C5=CC(=O)C=C[C@]5(C)[C@@]4(F)[C@@H](O)C[C@]3(C)[C@]2(C(=O)CSC2COC(=O)C2)O1 (stereo partly drawn) [Example 10, 6α,9α-Difluoro-11β-hydroxy-16α,17α-isopropylidenedioxy-21-(2-oxo-tetrahydro-furan4-yl-sulfanyl)-pregna-1,4-diene-3,20-dione]
EC50 [2]: < 600 nM

CCC[C@@H]1O[C@@H]2C[C@H]3[C@@H]4C[C@H](F)C5=CC(=O)CC[C@]5(C)[C@@]4(F)[C@@H](O)C[C@]3(C)[C@]2(C(=O)CSC2COC(=O)C2)O1 (stereo partly drawn) [Example 11, 16α,17α-(R-Butylidenedioxy)-6α,9α-difluoro-11β-hydroxy-21-(2-oxo-tetrahydro-furan-4-yl-sulfanyl)-pregn-4-ene-3,20-dione]
EC50 [2]: < 600 nM
